Data: patent publication US20060167109A1, “Methods of reducing rhinovirus contagion and related compositions” (priority 2002, published 2006)
Values joined by “and” are separate entries in the source; they are usually repeats but may differ in a detail not shown here. Identical values can stand only once.

What was measured:
human plasma proteins = test: Plasma protein binding; type: in vitro ADME
101 serotypes of HRVs = test: Spectrum of activity in HRV cytopathic effect assay
Protocol: HRV stocks were grown in HeLa (WIS) cells in 150 cm^2 flasks, frozen/thawed 3 times, aliquoted and stored frozen at −80° C. The virus inoculum to be used in the assay for each virus was determined as follows. HeLa (WIS) cells were seeded on 96-well tissue culture plates (Costar, 3598) at a density of 2.8×10^4 cells/well in M199 medium (Sigma) supplemented with 5% heat-inactivated newborn bovine serum. Twenty-four hours later, serial 0.5 log10 dilutions of each virus stock were plated in octuplicate onto the cells in complete M199 medium (5% heat-inactivated fetal bovine serum (FBS), 0.15 mM MgCl2, and 7.5 μg/mL diethylamino-dextran (DEAE-dextran)). The plates were incubated for 3 days at 33° C. in a humidified, 2.5% CO2 atmosphere, then fixed with 5% glutaraldehyde and stained with 0.1% crystal violet. After rinsing and drying, the optical density of the wells was read at a wavelength of 570 nm (OD570) on a Bio-Tek model EL-310 plate reader.

log P = type: physicochemical
HRV serotype 63 = test: HRV cytopathic effect assay; type: cell-based; settings: Human rhinovirus sp.
HRV serotype 22 = test: HRV cytopathic effect assay; type: cell-based; settings: Human rhinovirus sp.
HRV3 = test: Time of drug addition; type: cell-based, human rhinovirus
Protocol: To determine the stage in the virus replication cycle that is affected by pleconaril, time of drug addition studies were conducted. Pleconaril was added to cells either during viral attachment or at various times thereafter. Viral replication was allowed to proceed for a single cycle of growth (10-12 hours), at which time the cells were lysed by a freeze-thaw cycle, residual pleconaril was removed by chloroform extraction, and virus yield was determined in the cytopathic effect assay. A 2 μM concentration of pleconaril inhibited greater than 90% of the yield of HRV3 from a single cycle of growth if present during the virus attachment period.
Twenty-four well plates (Costar 3524) of HeLa cells were infected in duplicate with 250 μL of HRV3 in M199 medium with 5% FBS at a multiplicity of infection (MOI) of approximately 1 PFU/cell for 1 hour at room temperature. During a treatment (the “−1 h” timepoint), one set of duplicate wells for each virus received 2 μM pleconaril, while the remaining wells received DMSO (0.5% final concentration). After attachment, the cells were washed twice with 1 mL of DPBS, and then overlaid with fresh medium. Pleconaril (2 μM final concentration) was added to the wells at the indicated times. The plates were incubated at 33° C. (HRV3) for 10 hours, at which time they were frozen at −80° C. […]

[1] = Rat tissue distribution studies; type: in vivo; settings: estimated
Protocol: A 400 mg dose of pleconaril maintains antiviral concentrations at or above the concentration that inhibits 90% of the protoype HRV serotypes (90% Minimal Inhibitory Concentration or mic90) for a significant portion of the dosing interval after the first dose of pleconaril. A nasal tissue to plasma concentration ratio of five was estimated for pleconaril from rat tissue distribution studies.

[2] = tested on: 10 other human viral pathogens; test: Antiviral specificity, viral cytopathic effect assays; type: cell-based
[3] = tested on: influenza virus, strain WSN (FLUA); test: Virus cytopathic effect assay for other viruses; type: cell-based; settings: unidentified influenza virus, MDBK
Protocol: (§1) The sensitivity of non-picornaviruses to pleconaril was determined in virus cytopathic effect assays similar to the HRV assay for the following viruses: respiratory syncytial virus, strain Long (RSV-A) and herpes simplex virus type II, strain Curtis (HSV-2) on HEp2 cells; influenza virus, strain WSN (FLUA) on MDBK cells; dengue virus type 2, strain New Guinea (DEN-2), and measles virus, strain Edmonston (MeV) on Vero cells; human adenovirus, type 5 (HAdV-5) on HeLa cells (at 33° C.); human coronavirus, strain 229E (Corona) on MRC-5 cells (at 33° C.); and mumps virus, strain Enders (Mumps), reovirus type 1, strain Lang (REOV-1), and parainfluenza virus type 3, strain C243 (HPIV-3) on LLC-MK2d cells. All specificity assays were performed at 37° C. and 5% CO2 except where noted above.

[4] = tested on: respiratory syncytial virus, strain Long (RSV-A); test: Virus cytopathic effect assay for other viruses; type: cell-based; settings: human respiratory syncytial virus, HEp-2
Protocol: as §1

[5] = tested on: measles virus, strain Edmonston (MeV); test: Virus cytopathic effect assay for other viruses; type: cell-based; settings: Measles morbillivirus, Vero
Protocol: as §1

[6] = tested on: herpes simplex virus type II, strain Curtis (HSV-2); test: Virus cytopathic effect assay for other viruses; type: cell-based; settings: Human alphaherpesvirus 2, HEp-2
Protocol: as §1

[7] = tested on: reovirus type 1, strain Lang (REOV-1); test: Virus cytopathic effect assay for other viruses; type: cell-based; settings: Mammalian orthoreovirus 1
Protocol: as §1

[8] = tested on: parainfluenza virus type 3, strain C243 (HPIV-3); test: Virus cytopathic effect assay for other viruses; type: cell-based; settings: Human respirovirus 3
Protocol: as §1

[9] = tested on: mumps virus, strain Enders (Mumps); test: Virus cytopathic effect assay for other viruses; type: cell-based; settings: Mumps orthorubulavirus
Protocol: as §1

[10] = tested on: human adenovirus, type 5 (HAdV-5); test: Virus cytopathic effect assay for other viruses; type: cell-based; settings: Human mastadenovirus C, HeLa
Protocol: as §1

[11] = tested on: human coronavirus, strain 229E (Corona); test: Virus cytopathic effect assay for other viruses; type: cell-based; settings: Human coronavirus 229E, MRC5; Corona on MRC-5 cells at 33° C.
Protocol: as §1

[12] = tested on: dengue virus type 2, strain New Guinea (DEN-2); test: Virus cytopathic effect assay for other viruses; type: cell-based; settings: Vero
Protocol: as §1

For Cc1cc(CCCOc2c(C)cc(-c3noc(C(F)(F)F)n3)cc2C)on1 [pleconaril, 3-[3,5-dimethyl-4-[3-(3-methyl-5-isoxazolyl)propoxy]phenyl]-5-(trifluoromethyl)-1,2,4-oxadiazole], the protein bound (human plasma proteins) was > 99%, the MIC50 (101 serotypes of HRVs; Human rhinovirus sp., read-out: MIC50 (concentration inhibiting 50% of the HRV serotypes)) was ≤ 0.2 µM and ≤ 0.08 µg/mL and the MIC80 (101 serotypes of HRVs; Human rhinovirus sp., read-out: MIC80 (concentration inhibiting 80% of the HRV serotypes)) was ≤ 0.78 µM and ≤ 0.3 µg/mL. The MIC90 (101 serotypes of HRVs; Human rhinovirus sp., read-out: MIC90 (concentration inhibiting 90% of the HRV serotypes)) was ≤ 4.3 µM and ≤ 1.6 µg/mL, the “HRVs whose replication was inhibited” value (101 serotypes of HRVs; of 101 prototypic serotypes) was 93 of 101 and the “log P” value (log P) was “high”. The IC50 (HRV serotype 63) was 0.16 ± 0.08 µM, the IC50 (HRV serotype 22) was 0.04 ± 0.02 µM and the “reduction in virus yield” value (HRV3; 2 μM, drug addition after attachment (0 hour timepoint)) was < 1 log10. For the same compound, the inhibition at 2 µM (HRV3; Human rhinovirus sp., HRV3, present during the virus attachment period, read-out: inhibition of the yield of HRV3 from a single cycle of growth) was > 90%, the “nasal tissue to plasma concentration ratio” value [1] was “five” and the “activity against unrelated viruses” value [2] was “no activity”. For the same compound, the IC50 ([2]; Homo sapiens, all ten viruses) was > 12.5 µM, the IC50 [3] was > 12.5 µM and the IC50 [4] was > 12.5 µM. For the same compound, the IC50 [5] was > 12.5 µM, the IC50 [6] was > 12.5 µM and the IC50 [7] was > 12.5 µM. The IC50 [8] was > 12.5 µM, the IC50 [9] was > 12.5 µM and the IC50 [10] was > 12.5 µM. The IC50 [11] was > 12.5 µM and the IC50 [12] was > 12.5 µM.
